Assays:
Format in all cases: in vivo
[1] = system: Solanum nigrum; assay: Field test for weed control in a corn field; conditions: for Post-emergence weed control effect, Solanum nigrum: 150 g a.i./ha, 30 days after treatment
How it was run: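 In a corn field trial based on GB/T 17980.42-2000, 10% emulsifiable concentrates diluted in water were sprayed at 150 g(a.i.)/ha at the 2 to 5 leaf stage of corn. Each treatment used 20 m^2 plots and was repeated 4 times, with 25% mesotrione oil dispersion as the reference agent. Solanum nigrum damage was scored on a 1-9 scale against blank control plots.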

[2] = system: Chenopodium album; assay: Field test for weed control in a corn field; conditions: for Post-emergence weed control effect, Chenopodium album: 150 g a.i./ha, after treatment
How it was run: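 Field weed-control testing in corn, run per GB/T 17980.42-2000, scored Chenopodium album on a 1-9 level scale, where each level matches a percentage range of weed remaining relative to the blank control area. Sprays of 10% emulsifiable concentrates in water delivered 150 g(a.i.)/ha at the corn 2-leaf to 5-leaf stage on 20 m^2 plots, four replicates each. Mesotrione 25% oil dispersion served as reference.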

[3] = system: green bristlegrass; assay: Field test for weed control in a corn field; conditions: for Post-emergence weed control effect, Green bristlegrass: 150 g a.i./ha, after treatment
How it was run: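 Herbicidal activity against green bristlegrass was assessed in corn field plots of 20 m^2 per GB/T 17980.42-2000. Test agents, formulated as 10% emulsifiable concentrates, were applied in water at 150 g(a.i.)/ha at the corn 2 leaves to 5 leaves stage, repeated 4 times. A 25% mesotrione oil dispersion served as the control agent, and weed damage was rated on levels 1-9.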

[4] = system: Portulaca oleracea; assay: Field test for weed control in a corn field; conditions: for Post-emergence weed control effect, Portulaca oleracea: 150 g a.i./ha, after treatment
How it was run: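 Post-emergence weed control was evaluated in a corn field by the GB/T 17980.42-2000 method. Emulsifiable concentrates (10%) in water were applied as sprays at 150 g(a.i.)/ha at the 2-5 leaf corn stage, in four replicate 20 m^2 plots. A 25% mesotrione oil dispersion served as control agent. Effects were graded 1-9 relative to weed remaining in blank control areas.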

[5] = system: Digitaria sanguinalis; assay: Field test for weed control in a corn field; conditions: for Post-emergence weed control effect, Digitaria sanguinalis: 150 g a.i./ha, after treatment
How it was run: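 Field trial in a corn field following GB/T 17980.42-2000. Test compounds were formulated as 10% emulsifiable concentrates, diluted in water and sprayed post-emergence at 150 g(a.i.)/ha when corn had 2 to 5 leaves, with 4 replicates on 20 m^2 plots. Control of Digitaria sanguinalis was scored on a 1-9 scale based on weed damage relative to the untreated blank area.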

[6] = system: Amaranthus retroflexus; assay: Field test for weed control in a corn field; conditions: for Post-emergence weed control effect, Amaranthus retroflexus: 150 g a.i./ha, 30 days after treatment
How it was run: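 Post-emergence control of Amaranthus retroflexus was assessed in corn plots using the GB/T 17980.42-2000 method. Emulsifiable concentrates (10%) in water were applied by spraying at the 2- to 5-leaf crop stage on 20 m^2 plots, four replicates each, alongside a mesotrione 25% oil dispersion reference. Herbicidal activity was scored on 1-9 levels by weed amount relative to blank control areas.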

[7] = system: nutgrass flatsedge; assay: Field test for weed control in a corn field; conditions: for Post-emergence weed control effect, Nutgrass flatsedge: 150 g a.i./ha, after treatment
How it was run: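 Herbicidal effect on nutgrass flatsedge was measured in a field planted with corn, using the GB/T 17980.42-2000 method. Emulsifiable concentrates (10%) in water were sprayed at 150 g(a.i.)/ha during the 2-leaf to 5-leaf corn stage, on 20 m^2 plots repeated 4 times. 25% mesotrione oil dispersion was the control agent. Activity was scored from 1 to 9 by weed remaining relative to blank control plots.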

[8] = system: Barnyard grass; assay: Field test for weed control in a corn field; conditions: for Post-emergence weed control effect, Barnyard grass: 150 g a.i./ha, 30 days after treatment
How it was run: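 Herbicidal activity against barnyard grass was assessed in corn field plots of 20 m^2, with four replicates per treatment. Compounds were applied as water-diluted 10% emulsifiable concentrates at 150 g(a.i.)/ha at the 2-5 leaf corn stage, with 25% mesotrione oil dispersion as the reference agent. Damage was scored on a 1-9 scale against untreated blank plots.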

[9] = system: Convolvulus arvensis; assay: Field test for weed control in a corn field; conditions: for Post-emergence weed control effect, Convolvulus arvensis: 150 g a.i./ha, after treatment
How it was run: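 Post-emergence herbicidal activity on Convolvulus arvensis was scored in a corn field on a 1-9 scale, based on symptoms and damage severity. Each level corresponds to the weed remaining as a percentage of the blank control area. Sprays of 10% emulsifiable concentrate at 150 g(a.i.)/ha went on at the corn 2–5 leaf stage, with four replicates of 20 m^2 per treatment.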

[10] = system: goosegrass; assay: Field test for weed control in a corn field; conditions: for Post-emergence weed control effect, Goose grass: 150 g a.i./ha, after treatment
How it was run: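 In this field trial in corn, run per GB/T 17980.42-2000, test agents prepared as 10% emulsifiable concentrates were applied in water as sprays at 150 g(a.i.)/ha at the 2- to 5-leaf corn stage. Each treatment covered 20 m^2 and was repeated 4 times. Goosegrass control was scored 1-9 relative to weed remaining in blank control areas.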

[11] = system: Acalypha australis; assay: Field test for weed control in a corn field; conditions: for Post-emergence weed control effect, Acalypha australis: 150 g a.i./ha, after treatment
How it was run: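 Herbicidal activity against weeds was assessed in corn plots by the GB/T 17980.42-2000 method. Corn at the 2–5 leaf stage received water sprays of 10% emulsifiable concentrates at 150 g(a.i.)/ha, four repeats per treatment over 20 m^2. A 25% mesotrione oil dispersion was the reference. Damage symptoms and severity were rated on levels 1-9 relative to weeds in the blank control area.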

[12] = system: Humulus scandens; assay: Herbicidal activity test for indoor pre-emergence soil treatment; conditions: 150 g a.i./ha, visual inspection 21 days after treatment
How it was run: (§1)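 Compounds were formulated as 10% emulsifiable concentrates and sprayed onto the soil 24 h after sowing, at 150 g(a.i.)/ha. Soil was sandy loam (≤2% organic matter), with seeds under 0.5–2.0 cm cover, per NY/T 1155.3-2006. Visual 1–9 ratings relative to blank control were made after 21 days.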

[13] = system: Broadleaf weed; assay: Post-emergence herbicidal activity test in a paddy field; design: key: level scale; higher level = more weed left vs blank control; conditions: 150 g a.i./ha (penoxsulam control 250 g(a.i.)/h)
How it was run: (§2)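 Efficacy was visually estimated 15 and 30 days after spraying, grading weed coverage relative to an untreated neighbouring plot (level 2 = 0 to 2.5%, level 9 = 67.6 to 100%). Treatments were 150 g(a.i.)/ha from 10% emulsifiable concentrates applied at the 4-5 leaf rice stage, four repeats of 50 m^2 each.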

[14] = system: Cyperaceae; assay: as above; design: key: level scale; higher level = more weed left vs blank control; conditions: 150 g a.i./ha (penoxsulam control 250 g(a.i.)/h)
How it was run: as §2

[15] = system: Gramineae; assay: as above; design: key: level scale; higher level = more weed left vs blank control; conditions: 150 g a.i./ha (penoxsulam control 250 g(a.i.)/h)
How it was run: as §2

[16] = system: Digitaria sanguinalis; assay: Herbicidal activity test for indoor pre-emergence soil treatment; design: key: 1-9 levels; higher = more weed remaining vs blank control; conditions: 150 g a.i./ha, visual inspection 21 days after treatment
How it was run: as §1

[17] = system: Amaranthus retroflexus; assay: as above; design: key: 1-9 levels; higher = more weed remaining vs blank control; conditions: 150 g a.i./ha, visual inspection 21 days after treatment
How it was run: as §1

[18] = system: Humulus scandens; assay: Herbicidal activity test for indoor post-emergence spraying on stems and leaves; design: key: grade level by weed remaining vs blank control, e.g. 5 = 10.1-15%; conditions: 150 g a.i./ha, visual inspection 21 days after treatment
How it was run: (§3)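 Weeds were grown in a greenhouse from seed and treated by foliar spraying after emergence, per the NY/T 1155.4-2006 method. Visual grading at 21 days: each level reflects the share of weed remaining versus the untreated blank control area.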

[19] = system: green bristlegrass; assay: as above; design: key: grade level by weed remaining vs blank control, e.g. 5 = 10.1-15%; conditions: 150 g a.i./ha, visual inspection 21 days after treatment
How it was run: as §3

[20] = system: Digitaria sanguinalis; assay: as above; design: key: grade level by weed remaining vs blank control, e.g. 5 = 10.1-15%; conditions: 150 g a.i./ha, visual inspection 21 days after treatment
How it was run: as §3

[21] = system: Amaranthus retroflexus; assay: as above; design: key: grade level by weed remaining vs blank control, e.g. 5 = 10.1-15%; conditions: 150 g a.i./ha, visual inspection 21 days after treatment
How it was run: as §3

[22] = system: Barnyard grass; assay: as above; design: key: grade level by weed remaining vs blank control, e.g. 5 = 10.1-15%; conditions: 150 g a.i./ha, visual inspection 21 days after treatment
How it was run: as §3

[23] = system: Piemarker; assay: as above; design: key: grade level by weed remaining vs blank control, e.g. 5 = 10.1-15%; conditions: 150 g a.i./ha, visual inspection 21 days after treatment
How it was run: as §3

[24] = system: green bristlegrass; assay: Herbicidal activity test for indoor pre-emergence soil treatment; design: key: level 1-9; higher = more weed remaining vs blank control; conditions: 150 g a.i./ha, visual inspection 21 days after treatment
How it was run: as §1

[25] = system: Barnyard grass; assay: as above; design: key: level 1-9; higher = more weed remaining vs blank control; conditions: 150 g a.i./ha, visual inspection 21 days after treatment
How it was run: as §1

[26] = system: Piemarker; assay: as above; design: key: level 1-9; higher = more weed remaining vs blank control; conditions: 150 g a.i./ha, visual inspection 21 days after treatment
How it was run: as §1

[27] = 150 g(a.i.)/ha, 21 days after treatments

| SMILES | Post-emergence weed control effect, Solanum nigrum [1] | Post-emergence weed control effect, Chenopodium album [2] | Post-emergence weed control effect, Green bristlegrass [3] | Post-emergence weed control effect, Portulaca oleracea [4] | Post-emergence weed control effect, Digitaria sanguinalis [5] | Post-emergence weed control effect, Amaranthus retroflexus [6] | Post-emergence weed control effect, Nutgrass flatsedge [7] | Post-emergence weed control effect, Barnyard grass [8] | Post-emergence weed control effect, Convolvulus arvensis [9] | Post-emergence weed control effect, Goose grass [10] | Post-emergence weed control effect, Acalypha australis [11] | Herbicidal Activity Humulus scandens [12] | Herbicidal activity 15 days after treatment Broadleaf weed [13] | Herbicidal activity 30 days after treatment Broadleaf weed [13] | Herbicidal activity 15 days after treatment Cyperaceae [14] | Herbicidal activity 30 days after treatment Cyperaceae [14] | Herbicidal activity 15 days after treatment Gramineae [15] | Herbicidal activity 30 days after treatment Gramineae [15] | Herbicidal Activity Digitaria sanguinalis [16] | Herbicidal Activity Amaranthus retroflexus [17] | further results |
| --- | --- | --- | --- | --- | --- | --- | --- | --- | --- | --- | --- | --- | --- | --- | --- | --- | --- | --- | --- | --- | --- |
| COc1ncccc1C(=O)NCc1cc(F)cc(Cl)c1 [Compound A89] | 2 (equivalent to 0 to 2.5% of the weed in the blank control area) | 1 | 1 | 1 | 2 (equivalent to 0 to 2.5% of the weed in the blank control area) | 1 | 2 (equivalent to 0 to 2.5% of the weed in the blank control area) | 1 | 1 | 2 (equivalent to 0 to 2.5% of the weed in the blank control area) | 1 | 2 (equivalent to 0 to 2.5% of the weed in the blank control area) | 1 | 1 | 1 | 1 | 1 | 1 | 2 (equivalent to 0 to 2.5% of the weed in the blank control area) | 1 | Herbicidal Activity Humulus scandens [18]: 1; Herbicidal Activity Green bristlegrass [19]: 1; Herbicidal Activity Digitaria sanguinalis [20]: 1; Herbicidal Activity Amaranthus retroflexus [21]: 1; Herbicidal Activity Barnyard grass [22]: 1; Herbicidal Activity Piemarker [23]: 1; Herbicidal Activity Green bristlegrass [24]: 1; Herbicidal Activity Barnyard grass [25]: 1; Herbicidal Activity Piemarker [26]: 1 |
| Cc1cccc(C(=O)NCc2cc(Cl)cc(Cl)c2)c1 [Compound B08] | 1 | 1 | 1 | 1 | 1 | 1 | 1 | 1 | 1 | 1 | 1 | 2 (equivalent to 0 to 2.5% of the weed in the blank control area) | 2 (equivalent to 0 to 2.5% of the weed in the blank control area) | 1 | 1 | 1 | 2 (equivalent to 0 to 2.5% of the weed in the blank control area) | 2 (equivalent to 0 to 2.5% of the weed in the blank control area) | 2 (equivalent to 0 to 2.5% of the weed in the blank control area) | 1 | controlling effect on Solanum nigrum [1, 27]: 1; controlling effect on Chenopodium album [2, 27]: 1; controlling effect on green bristlegrass [3, 27]: 1; controlling effect on Portulaca oleracea [4, 27]: 1; controlling effect on Digitaria sanguinalis [5, 27]: 1; controlling effect on Amaranthus retroflexus [6, 27]: 1; controlling effect on nutgrass flatsedge [7, 27]: 1; controlling effect on barnyard grass [8, 27]: 1; controlling effect on Convolvulus arvensis [9, 27]: 1; controlling effect on goosegrass [10, 27]: 1; controlling effect on Acalypha australis [11, 27]: 1; Herbicidal Activity Humulus scandens [18]: 1; Herbicidal Activity Green bristlegrass [19]: 2 (equivalent to 0 to 2.5% of the weed in the blank control area); Herbicidal Activity Digitaria sanguinalis [20]: 1; Herbicidal Activity Amaranthus retroflexus [21]: 1; Herbicidal Activity Barnyard grass [22]: 1; Herbicidal Activity Piemarker [23]: 1; Herbicidal Activity Green bristlegrass [24]: 2 (equivalent to 0 to 2.5% of the weed in the blank control area); Herbicidal Activity Barnyard grass [25]: 2 (equivalent to 0 to 2.5% of the weed in the blank control area); Herbicidal Activity Piemarker [26]: 2 (equivalent to 0 to 2.5% of the weed in the blank control area) |
